Results as given in article PMC4912613, “A broad analysis of resistance development in the malaria parasite” (Nature Communications, 2016).
Where two headings read alike, the source gives them in different places. Marks after values point to notes of the source that are not given here.

Legend:
PfCRT-Q352R (parent Dd2) = assay: Cross-resistance EC50 assay, PfCRT-Q352R; type: cell-based; settings: Plasmodium falciparum, DD2, 72 h, read-out: PfCRT:Q352R (Dd2 Parent) Average EC50
From the text: (§1) To evaluate potential overlapping activity against known antimalarial drug targets, we performed dose-response studies with each compound against our assembled set of drug-resistant lines and their corresponding parents, in an asexual blood stage proliferation assay (Table 1). Comparisons were made to the drug-sensitive strain 3D7 when a parent was unavailable (TM90C2A, W2 and Dd2). As laboratories conducted EC50 assays with different strains and protocols, all comparisons were made between assays from the same laboratory and under the same assay conditions. Compounds displaying >5-fold EC50 shifts relative to the parent or sensitive strain were flagged as having potentially non-novel targets. Average fold shifts per strain ranged from 0.82 to 2.34, with a median of 1.23 indicating there was not common resistance to any one resistant clone. No resistance patterns were observed when classifying the compounds based on chemical structure, but this was not surprising given the diversity of compounds chosen. On the other hand, given that these confirmed compounds were derived from larger unconfirmed hit lists to which some filtration criteria may have been applied (for example, elimination of obvious dihydrofolate reductase inhibitors[32]), some[10][11][12][13] pre-existing bias may exist in the set. […]
(§2) Alternatively, a SYBR Green-based proliferation approach was used for the 72-h assay, as previously described. Briefly, a culture of either synchronized or asynchronous parasitized RBCs (0.3% parasitemia and 4% haematocrit) in screening medium (identical to supplemented medium above except no serum was added) was exposed to serial drug dilutions. Plates were incubated at 37 °C and gassed with 93% N2, 4% CO2 and 3% O2 for 72 h. Following incubation, 10 × SYBR Green I (Invitrogen; supplied in 10,000 × concentration) in lysis buffer ([…], 5 mM EDTA, 0.16% Saponin wt per vol and 1.6% Triton X vol per vol) was added to the wells and the plates were incubated overnight at room temperature before plate reading. EC50 assays were repeated three times, taking the average EC50 value from each assay set, and removing any outliers using a single iteration of Grubbs' test, eliminating values with z-scores above the critical z-value (α=0.05). The raw EC50 values for synchronized parasites assayed in a 384-well format are listed in Supplementary Data 4. The raw EC50 values for asynchronous parasites assayed in a 96 or 1536-well format are listed in Supplementary Data 5.
(§3) EC50 values for each strain were compared with those of the corresponding parent strain to determine fold-shift changes and identify resistance. To minimize the cause variance between assays, all comparisons were conducted between strains assayed under identical conditions. A one-way ANOVA followed by a Dunnet's post-test was conducted in GraphPad Prism to identify significant changes between the parent and resistant strain.

[1] = test system: ATQ-R5 (cytb F267V, parent 3D7); assay: Cross-resistance EC50 assay, ATQ-R5; type: cell-based, Plasmodium falciparum; settings: Plasmodium falciparum, 3D7; SYBR green 72 hour assay; asynchronized parasites; 96-well or 1536-well format; ATQ-R5
From the text: as §1, §2, §3

[2] = test system: CYTbQi (cytb G33A, parent Dd2); assay: Cross-resistance EC50 assay, CYTbQi; type: cell-based; settings: Plasmodium falciparum; SYBR green 72 hour assay; synchronized parasites; 384-well format; strain CYTbQi (Dd2 parent)
From the text: as §1, §2, §3

Dd2 = assay: Cross-resistance EC50 assay, Dd2 parent; type: cell-based, Plasmodium falciparum; settings: for EC50: Plasmodium falciparum, DD2, 72 h
From the text: Multidrug resistance alleles, including mutations in P. falciparum chloroquine resistance transporter (pfcrt) and P. falciparum multi-drug resistance transporter 1 (pfmdr1) are very common in field isolates. Therefore, we sought to assess the degree to which pre-existing resistance alleles would contribute to a loss of potency for this diverse collection of small molecule compounds. Fifteen clones derived from three main parent lines were chosen to maximize diversity in mutated pathways and genetic backgrounds, thus representing the variety of resistance seen in the field: 3D7 (ref. [23]), W2 (ref. [24]) or Dd2 (ref. [25]). The 3D7 line originates from the clone of a Netherlands clinical isolate strain[23][26] and is generally considered to be drug sensitive, though it does convey resistance to sulfadoxine. Conversely, W2 (ref. [24], [27]) and Dd2 (ref. [25]) are multi-drug-resistant lines originating from the Indochina III/CDC isolate, which contain point mutations in pfcrt as well as amplifications in pfmdr1 and GTP cyclohydrolase.
as §1, §2, §3

[3] = test system: P. falciparum 3D7, Dd2, Dd2Δexo; assay: In vitro evolution of compound-resistant lines (selection); type: cell-based, Plasmodium falciparum; settings: for Time Length to Obtain Mutants: in vitro selection; for # of Resistant Strains Generated: resistant cultures out of three independent cultures; for EC50 fold shifts observed: selected parasites vs selection parent
From the text: While we found an overall lack of pre-existing resistance, analysing the onset of resistance was critical, as compounds resulting in rapid resistance are not ideal for clinical development. We therefore sought to create drug-resistant parasites using a variety of different selection methods. We implemented either a high-dose method or a ramp-up/pulse method for our in vitro selections. Two of the 50 compounds—MMV028895 and MMV665824—were removed from the selection study during experimentation. […] Out of the remaining 48 compounds, resistant parasites were obtained for 23 (Supplementary Data 1). As each selection was performed in triplicate with three independent cultures, we succeeded in generating a total of 66 resistant cultures. Parasites resistant to MMV026596 were not obtained despite 100 days of selection, but the cultures acquired hypersensitivity to mefloquine with a 10-fold reduction in EC50 compared with its parental line, 3D7. For the remaining 24 compounds, acquisition of resistant parasites was unsuccessful despite numerous attempts over an extensive period of time.
Based on the compound speed of action and lab specialty, selections were conducted using a high-pressure intermittent selection method, a step-wise selection method, or a constant selection method. For high-pressure selections, ∼1–2 × 10^9 parasites were treated at a concentration of 3–10 × EC50 until parasites could not be seen by microscopy (4–10 days). Following treatment, compound pressure was removed and cultures were allowed to recover. Once healthy parasites were seen and parasitemia reached ∼2%, compound pressure was reinstated. For step-wise selections, ∼1 × 10^8 parasites were treated at a starting concentration resulting in a reduced growth rate of 50%. Cultures were examined daily by microscopy, increasing compound concentration in increments of 5–10% as needed to maintain a 50% reduced growth rate. Selections were carried out until cultures achieved a reproducible EC50 fold shift of >3 × . Finally, constant selections were conducted in a similar manner to the high-pressure intermittent method with the exception that compound pressure was never removed. Following successful selection, cultures were cloned out using a limiting dilution method as previously described. Selections were terminated after 200 days if resistance could not be obtained.

[4] = test system: GNF156R (PfCARL L830V, S1076I and M81I, parent Dd2); assay: Cross-resistance EC50 assay, GNF156R; type: cell-based; settings: Plasmodium falciparum, SYBR green 72 hour assay, asynchronized parasites, 96-well or 1536-well format
From the text: as §1, §2, §3

[5] = read-out: Dd2 (PARENT) Average EC50
[6] = read-out: Dd2 (PARENT) EC50 (µM) Average EC50

Row | Compound | EC50 (PfCRT-Q352R (parent Dd2)) [nM] | EC50 [1] [µM] | EC50 [2] [nM] | EC50 (Dd2; [5]) [µM] | EC50 (Dd2; [6]) [µM] | Time Length to Obtain Mutants [3] | # of Resistant Strains Generated [3] | EC50 fold shifts observed [3] | EC50 [4] [µM] | EC50 fold-shift, Dd2 compared with 3D7, average (Dd2; average) [×]
1 | c1cncc(-c2cc(N3CCC(CN4CCOCC4)CC3)nc(-c3ccncc3)n2)c1 [MMV668399] | 70 | 0.339 | 162 | 0.087 | 0.984 | LONG (> 125 days) | 3/3 | 2-4x | 0.827 | –
2 | CCC(C)NCC(O)(c1ccc(Cl)cc1)c1ccc(Cl)cc1 (stereo not shown) [MMV665928] | 486 | 0.074 | 492 | 0.427 | 0.331 | SHORT (0-50 days) | 0/3 | no shift | 0.682 | –
3 | Cc1ccc(Oc2ncccc2C(=O)Cc2cccc3cccnc23)c(C)c1 [MMV020746] | 142 | 1.49 | 268 | 0.241 | 1.86 | SHORT (0-50 days) | 3/3 | 6-19x | 3.38 | –
4 | O=C(Nc1ccsc1C(=O)NC1CCCCC1)c1ccc(F)cc1 [MMV665939] | 1140 | 3.43 | 1610 | 1.96 | 2.06 | MODERATE (50-125 days) | 3/3 | 4-6x | 1.28 | 2.4
5 | COc1cc(-c2nc(-c3ccccc3)c(-c3ccccc3)[nH]2)ccc1OCCN(C)C [MMV027496] | 211 | 0.302 | 317 | 0.304 | 0.74 | LONG (> 125 days) | 0/3 | no shift | 1.8 | –
6 | CCOc1cc2c(cc1OCC)C(c1cc(Cl)ccc1O)NCC2 (stereo not shown) [MMV000478] | 785 | 0.733 | 817 | 0.803 | 0.843 | LONG (> 125 days) | 0/3 | no shift | 0.764 | –
7 | CN(C)Cc1ccc(-c2cc3c(-c4ccc(CN(C)C)cc4)ccnc3[nH]2)cc1.O=C(O)C(F)(F)F [MMV022224] | 320 | 0.358 | 327 | 0.41 | 0.302 | LONG (> 125 days) | 0/3 | no shift | 0.429 | –
8 | COc1ccc(-c2nc(NC(=O)Cc3ccc4c(c3)OCCO4)sc2C)cc1 [MMV019719] | 244 | 0.213 | 245 | 0.26 | 0.277 | MODERATE (50-125 days) | 3/3 | 3x | 0.347 | –
9 | COC(=O)c1ccc(C2C3=C(O)CC(c4ccc(F)cc4)CC3=Nc3ccccc3N2C(=O)c2ccccc2)cc1 (stereo not shown) [MMV011438] | 174 | 0.34 | 235 | 0.152 | 0.655 | LONG (> 125 days) | 0/3 | no shift | 0.842 | –
10 | CCN(CC)CCn1c(=N)n(CC(O)c2ccc(Cl)c(Cl)c2)c2ccccc21.Cl (stereo not shown) [MMV000248] | 329 | 0.191 | 340 | 0.424 | 0.413 | LONG (> 125 days) | 0/3 | no shift | 0.432 | –
11 | c1cc(-c2cnc3ccc(-c4ccc(N5CCOCC5)cc4)nn23)ccn1 [MMV668311] | 63 | 0.029 | 66 | 0.056 | 0.039 | LONG (> 125 days) | 0/3 | no shift | 0.031 | –
12 | Brc1ccc(Nc2nc3ccccc3nc2Nc2ccc(Br)cc2)cc1 [MMV007224] | 287 | 0.719 | 327 | 0.274 | 0.714 | LONG (> 125 days) | 3/3 | 1.7x | 0.712 | –
13 | CN(C)S(=O)(=O)c1cc(-c2ccc3nccc(-c4cccc(S(N)(=O)=O)c4)c3c2)cnc1N [MMV024038] | 107 | 0.878 | 164 | 0.106 | 0.509 | SHORT (0-50 days) | 0/3 | no shift | 0.861 | –
14 | COc1cc2cc(C(=O)Nc3ccccc3)c(N)nc2cc1OC [MMV006767] | 1480 | 2.87 | 1930 | 1.6 | 0.215 | MODERATE (50-125 days) | 2/3* | 2-4x | 0.379 | –
15 | Nc1ncc(-c2cn[nH]c2)cc1-c1nc2ccc(F)cc2[nH]1 [MMV023367] | 421 | 1.53 | 626 | 0.654 | 1.96 | LONG (> 125 days) | 3/3 | 3x | 2.54 | –
